pEC50: −log10 of the molar value.
What was measured:
[1] = system: Respiratory syncytial virus recombinant with luciferase (RSV-Luc5) in HEp-2 cells; test: HEp-2 RSV-Luc5 384-well Assay (EC50 RSVFLUC Hep2-384 v2, Ex. V); assay type: cell-based; conditions: human respiratory syncytial virus, HEp-2, 72 h, read-out: EC50 RSV FLuc Hep-2 384 V2 (per Ex. V)
Description: Example V: HEp-2 RSV-Luc5 384-well Assay (EC50 RSVFLUC Hep2-384 v2)
HEp-2 cell line was purchased from ATCC (Manassas, VA Cat #CCL-23) and maintained in Dulbecco's […] (DMEM) (Corning, New York, NY, Cat #15-018CM) supplemented with 10% fetal bovine serum (FBS) (Hyclone, Logan, UT, Cat #SH30071-03) and 1× Penicillin-Streptonycin-L-Glutamine (Corning, New York, NY, Cat #30-009-CI). Cells were passaged 2 times per week to maintain sub-confluent densities and were used for experiments at passage 5-20. Respiratory syncytial virus recombinant with luciferase (RSV-Luc5) (≥1 ×107 TCID50/ml) was purchased from Microbiologics (Saint Cloud, MN). Viral replication was determined in HEp-2 cells in the following manner.
Compounds are prepared in 100% DMSO in 384-well polypropylene plates (Greiner, Monroe, NC, Cat #784201) with 8 compounds per plate in grouped replicates of 4 at 10 serially diluted concentrations (1:3). The serially diluted compounds were transferred to low dead volume Echo plates (Labcyte, Sunnyvale, CA, Cat #LP-0200).
The test compounds were spotted to 384-well assay plates (Greiner, Monroe, NC, Cat#781091) at 200 nL per well. HEp-2 cells were harvested and suspended in DMEM (supplemented with 10% FBS and 1× Penicillin-Streptonycin-L-Glutamine) and seeded to the pre-spotted assay plates at 4,000 cells per well in 30 μL. RSV-Luc5 viruses were diluted in DMEM (supplemented with 10% FBS and 1× Penicillin-Streptomycin-L-Glutamine) at 200,000 Infectious Units (IU) per mL and 10 μL per well was added to the assay plates containing cells and compounds, for an MOI=0.5. The assay plates were incubated for 3 days at 37° C. and 5% CO2. At the end of incubation, One-Glo reagent (Promega, Madison, WI, Cat #E6120) was prepared. The assay plates and One-Glo reagent were equilibrated to room temperature for at least 15 minutes. 40 μL per well of One-Glo reagent was added and the plates were incubated at room temp for 15 minutes before reading the luminescence signal on an EnVision multimode plate reader (Perkin Elmer, Waltham, MA). Remdesivir was used as positive control and DMSO was used as negative control. Values were normalized to the positive and negative controls (as 0% and 100% replication, respectively) and data was fitted using non-linear regression analysis by Gilead's dose response tool. The EC50 value for each compound was then determined as the concentration reducing the viral replication by 50%.

[2] = GI S9 stability (Ex. Z), human intestinal S9; assay type: in vitro ADME; conditions: pooled intestinal S9 fractions; human intestinal S9, 1.0 mg/mL protein, 2 μM substrate, pH 7.4; read-out: GIS9 Human T½ (per Ex. Z)
Experimental: Example Z: GI S9 stability data:
Stock solutions of test compounds in dimethyl sulfoxide (DMSO) having a final concentration of 10 mM were prepared and used in all experiments. Sekisui XenoTech (Kansas City, KS) provided pooled intestinal S9 fractions. All other chemicals were purchased from Sigma-Aldrich (St. Louis, MO) or VWR (West Chester, PA). Internal Standard/Quench (IS/Q) used to stop reactions was 100 nM labetalol in (by volume) methanol (10%) and acetonitrile (90%).
Stability in Intestinal S9 Fractions: Duplicate aliquots of test compound or positive control substrate were added to S9 stock diluted with phosphate buffered saline (137 mM NaCl, 2.7 mM KCl, 10 mM phosphate buffer), pH 7.4, to obtain a protein concentration of 1.0 mg/mL. The metabolic reactions were initiated by the addition of the substrates to the S9 reaction mixture to a final concentration of 2 μM. At 0, 10, 20, 30, 60 and 120 min, 25 μL aliquots of the reaction mixture were transferred to plates containing 225 μl of IS/Q solution. After quenching, the plates were centrifuged at 3000×g for 30 minutes. 150 μL aliquots of each supernatant were dried down then reconstituted with 300 μL water. Aliquots (10 μL) of the prepared samples were analyzed on a Thermo Q-Exactive mass spectrometer as described below.
Liquid Chromatography—Mass Spectrometry: Quantification of test compounds and control substrate was performed by analyte/internal standard peak area ratio (PAR) values measured on a Thermo Q-Exactive mass spectrometer coupled to a Dionex UltiMate 3000 HPLC with a Leap Technologies HTC PAL autosampler. The column used for analysis was a Waters Acquity BEH C18 (1.7 μm particle size, 2.1×50 mm). Mobile phase A consisted of 0.1% (v/v) formic acid in water. Mobile phase B consisted of 0.1% (v/v) formic acid in acetonitrile. Elution of analytes was achieved by a series of linear gradients varying the proportions of A and B. The mass spectrometer was calibrated on a weekly basis and mass tolerance of 5 ppm was used.
Metabolic stabilities in S9 fractions were determined by measuring the rates of disappearance of test compound and positive control substrate.
Data (% of substrate remaining) were plotted on a semi-log scale and fitted using an exponential decline model:
Where Ct—% of substrate remaining at time=t; C0—% of substrate remaining at time=0; t—time; T½—half-life The Half-life (T½) is determined by the following equation: […]
Assuming a first-order reaction, the slope (k) is extrapolated from the aforementioned plotted data.

Structure (SMILES)	pEC50 [1]	half-life at 2 μM [2] [min]
CC(C)C(=O)OC[C@@]1(C#N)O[C@@H](c2ccc3c(N)ncnn23)[C@H](O)[C@@H]1O [Compound 1, ((2R,3S,4R,5S)-5-(4-aminopyrrolo[2,1-f][1,2,4]triazin-7-yl)-2-cyano-3,4-dihydroxytetrahydrofuran-2-yl)methyl isobutyrate]	4.82	38
N#C[C@]1(COC(=O)c2ccccc2)O[C@@H](c2ccc3c(N)ncnn23)[C@H](O)[C@@H]1O [Compound 2, ((2R,3S,4R,5S)-5-(4-aminopyrrolo[2,1-f][1,2,4]triazin-7-yl)-2-cyano-3,4-dihydroxytetrahydrofuran-2-yl)methyl benzoate]	4.43	27
CC(C)CC(=O)OC[C@@]1(C#N)O[C@@H](c2ccc3c(N)ncnn23)[C@H](O)[C@@H]1O [Compound 3, ((2R,3S,4R,5S)-5-(4-aminopyrrolo[2,1-f][1,2,4]triazin-7-yl)-2-cyano-3,4-dihydroxytetrahydrofuran-2-yl)methyl 3-methylbutanoate]	4.58	42
CC(=O)OC[C@@]1(C#N)O[C@@H](c2ccc3c(N)ncnn23)[C@H](O)[C@@H]1O [Compound 4, ((2R,3S,4R,5S)-5-(4-aminopyrrolo[2,1-f][1,2,4]triazin-7-yl)-2-cyano-3,4-dihydroxytetrahydrofuran-2-yl)methyl acetate]	4.81	23
CCC(=O)OC[C@@]1(C#N)O[C@@H](c2ccc3c(N)ncnn23)[C@H](O)[C@@H]1O [Compound 5, ((2R,3S,4R,5S)-5-(4-aminopyrrolo[2,1-f][1,2,4]triazin-7-yl)-2-cyano-3,4-dihydroxytetrahydrofuran-2-yl)methyl propionate]	4.70	29
CCCC(=O)OC[C@@]1(C#N)O[C@@H](c2ccc3c(N)ncnn23)[C@H](O)[C@@H]1O [Compound 6, ((2R,3S,4R,5S)-5-(4-aminopyrrolo[2,1-f][1,2,4]triazin-7-yl)-2-cyano-3,4-dihydroxytetrahydrofuran-2-yl)methyl butyrate]	4.77	8
N#C[C@]1(COC(=O)C2CC2)O[C@@H](c2ccc3c(N)ncnn23)[C@H](O)[C@@H]1O [Compound 7, ((2R,3S,4R,5S)-5-(4-aminopyrrolo[2,1-f][1,2,4]triazin-7-yl)-2-cyano-3,4-dihydroxytetrahydrofuran-2-yl)methyl cyclopropanecarboxylate]	4.30	292
N#C[C@]1(COC(=O)C2CCC2)O[C@@H](c2ccc3c(N)ncnn23)[C@H](O)[C@@H]1O [Compound 8, ((2R,3S,4R,5S)-5-(4-aminopyrrolo[2,1-f][1,2,4]triazin-7-yl)-2-cyano-3,4-dihydroxytetrahydrofuran-2-yl)methyl cyclobutanecarboxylate]	4.83	4
CCC(CC)C(=O)OC[C@@]1(C#N)O[C@@H](c2ccc3c(N)ncnn23)[C@H](O)[C@@H]1O [Compound 9, ((2R,3S,4R,5S)-5-(4-aminopyrrolo[2,1-f][1,2,4]triazin-7-yl)-2-cyano-3,4-dihydroxytetrahydrofuran-2-yl)methyl 2-ethylbutanoate]	4.54	55
CC(C)(C)C(=O)OC[C@@]1(C#N)O[C@@H](c2ccc3c(N)ncnn23)[C@H](O)[C@@H]1O [Compound 10, ((2R,3S,4R,5S)-5-(4-aminopyrrolo[2,1-f][1,2,4]triazin-7-yl)-2-cyano-3,4-dihydroxytetrahydrofuran-2-yl)methyl pivalate]	4.66	124
CC(C)C(=O)O[C@H]1[C@H](c2ccc3c(N)ncnn23)O[C@](C#N)(COC(=O)c2ccccc2)[C@H]1O [Compound 22, ((2R,3S,4R,5S)-5-(4-aminopyrrolo[2,1-f][1,2,4]triazin-7-yl)-2-cyano-3-hydroxy-4-(isobutyryloxy)tetrahydrofuran-2-yl)methyl benzoate]	4.49	–
CC(=O)OC[C@@]1(C#N)O[C@@H](c2ccc3c(NC(=O)C(C)C)ncnn23)[C@H](O)[C@@H]1O [Compound 23, ((2R,3S,4R,5S)-2-cyano-3,4-dihydroxy-5-(4-isobutyramidopyrrolo[2,1-f][1,2,4]triazin-7-yl)tetrahydrofuran-2-yl)methyl acetate]	4.48	–
CC1(C(=O)OC[C@@]2(C#N)O[C@@H](c3ccc4c(N)ncnn34)[C@H](O)[C@@H]2O)CCC1 [Compound 24, ((2R,3S,4R,5S)-5-(4-aminopyrrolo[2,1-f][1,2,4]triazin-7-yl)-2-cyano-3,4-dihydroxytetrahydrofuran-2-yl)methyl 1-methylcyclobutane-1-carboxylate]	4.92	–
CC(C)(C)CC(=O)Nc1ncnn2c([C@@H]3O[C@](C#N)(COC(=O)CC(C)(C)C)[C@@H](O)[C@H]3O)ccc12 [Compound 26, ((2R,3S,4R,5S)-2-cyano-5-(4-(3,3-dimethylbutanamido)pyrrolo[2,1-f][1,2,4]triazin-7-yl)-3,4-dihydroxytetrahydrofuran-2-yl)methyl 3,3-dimethylbutanoate]	4.33	–
CCC(C)(C)CC(=O)OC[C@@]1(C#N)O[C@@H](c2ccc3c(N)ncnn23)[C@H](O)[C@@H]1O [Compound 27, ((2R,3S,4R,5S)-5-(4-aminopyrrolo[2,1-f][1,2,4]triazin-7-yl)-2-cyano-3,4-dihydroxytetrahydrofuran-2-yl)methyl 3,3-dimethylpentanoate]	4.91	–
CC(C)(CF)C(=O)OC[C@@]1(C#N)O[C@@H](c2ccc3c(N)ncnn23)[C@H](O)[C@@H]1O [Compound 29, ((2R,3S,4R,5S)-5-(4-aminopyrrolo[2,1-f][1,2,4]triazin-7-yl)-2-cyano-3,4-dihydroxytetrahydrofuran-2-yl)methyl 3-fluoro-2,2-dimethylpropanoate]	4.54	–
[H]/N=c1/c2ccc([C@@H]3O[C@](C#N)(CO)[C@@H](O)[C@H]3O)n2ncn1COC(=O)C(C)C [Compound 34, (7-((2S,3R,4S,5R)-5-cyano-3,4-dihydroxy-5-(hydroxymethyl)tetrahydrofuran-2-yl)-4-iminopyrrolo[2,1-f][1,2,4]triazin-3(4H)-yl)methyl isobutyrate]	< 4.30	–
CC[C@@H](C)C(=O)OC[C@@]1(C#N)O[C@@H](c2ccc3c(N)ncnn23)[C@H](O)[C@@H]1O [Compound 37, ((2R,3S,4R,5S)-5-(4-aminopyrrolo[2,1-f][1,2,4]triazin-7-yl)-2-cyano-3,4-dihydroxytetrahydrofuran-2-yl)methyl (R)-2-methylbutanoate]	4.83	–

— US20240199676A1, “ANTIVIRAL COMPOUNDS AND METHODS OF MAKING AND USING THE SAME” (Gilead Sciences, Inc., priority 2022, published 2024)
